Source: US20230310372A1 (Amarin Pharmaceuticals Ireland Limited, priority 2013, published 2023)
Values joined by “and” are separate entries in the source; they are usually repeats but may differ in a detail not shown here. Equal values may be shown once.

Assay: Phase 1, open-label, crossover drug-drug interaction study: steady-state plasma pharmacokinetics of atorvastatin and its two active metabolites with or without ethyl eicosapentaenoate
Settings: for Effect of co-administration of ethyl eicosapentaenoate on Tmax: atorvastatin 80 mg alone versus with 4 g ethyl eicosapentaenoate; for Change of mean plasma concentrations over time: subjects concomitantly administered 4 g of ethyl eicosapentaenoate, FIG. 1B, 1C
From the text: Data for Cmax and AUC0-24 are reported as means (SD); data for Tmax are reported as median values.

[1] = 80 mg atorvastatin co-administered with 4 g ethyl eicosapentaenoate
[2] = atorvastatin + ethyl eicosapentaenoate group divided by atorvastatin only group
[3] = atorvastatin + ethyl eicosapentaenoate versus atorvastatin only

Structure (SMILES)	AUC0-24, mean (80 mg atorvastatin alone)	Cmax, mean (80 mg atorvastatin alone)	Tmax, median (80 mg atorvastatin alone)	AUC0-24, mean [1]	Cmax, mean [1]	Tmax, median [1]	AUC0-24, LSGM (least squares geometric mean) (A + EPA = atorvastatin (80 mg) co-administered with ethyl eicosapentaenoate (4 g))	Effect of co-administration of ethyl eicosapentaenoate on Tmax	AUC0-24, Ratio of LSGM [2]	Cmax, Ratio of LSGM [2]	AUC0-24, 90% CI of the ratio [3]	Cmax, 90% CI of the ratio [3]	Change of mean plasma concentrations over time
CC(C)c1c(C(=O)Nc2ccccc2O)c(-c2ccccc2)c(-c2ccc(F)cc2)n1CCC(O)CC(O)CC(=O)O (stereo not drawn) [2-Hydroxyatorvastatin, 2-hydroxyatorvastatin]	213.1 ng·h/mL	43.2 ng/mL	1.25 h	196.7 ng·h/mL	44.5 ng/mL	1.25 h	30.9 ng·h/mL	did not significantly affect	0.91 and 0.92	1.04 and 0.97	82.8-99.7 and 82.3-103	89.1-121 and 80.0-117	did not significantly change
CC(C)c1c(C(=O)Nc2ccc(O)cc2)c(-c2ccccc2)c(-c2ccc(F)cc2)n1CC[C@@H](O)C[C@@H](O)CC(=O)O [4-Hydroxyatorvastatin, 4-hydroxyatorvastatin]	36.7 ng·h/mL	4.1 ng/mL	1.50 h	34.3 ng·h/mL	4.2 ng/mL	1.50 h		did not significantly affect					did not significantly change
